Source: ChEMBL document CHEMBL1799954, “Structure and cytotoxicity of diterpenoids from Isodon adenolomus” (J Nat Prod, 2011)

Key:
Assay type in all cases: functional, cell-based
HL-60 = assay: Cytotoxicity against human HL60 cells after 48 hrs by MTT method; conditions: HL-60, 48 h
SMMC-7721 = assay: Cytotoxicity against human SMMC7721 cells after 48 hrs by MTT method; conditions: SMMC-7721, 48 h
A549 = assay: Cytotoxicity against human A549 cells after 48 hrs by MTT method; conditions: A549, 48 h
MCF7 = assay: Cytotoxicity against human MCF7 cells after 48 hrs by MTT method; conditions: MCF7, 48 h
SW480 = assay: Cytotoxicity against human SW480 cells after 48 hrs by MTT method; conditions: SW480, 48 h

| SMILES | IC50 (HL-60) | IC50 (SMMC-7721) | IC50 (A549) | IC50 (MCF7) | IC50 (SW480) |
| --- | --- | --- | --- | --- | --- |
| C=C1[C@@H](O)[C@]23[C@H](O)[C@H]1CC[C@H]2[C@@]12C(=O)O[C@]3(O)[C@@H](O)[C@@H]1C(C)(C)CC[C@@H]2OC(C)=O | > 10 µM | > 10 µM | > 10 µM | > 10 µM | > 10 µM |
| C=C1C(=O)[C@]23C[C@H]1CC[C@H]2[C@@]12CO[C@@]3(O)[C@@H](O)[C@@H]1C(C)(C)CC[C@@H]2OC(C)=O [EFFUSANIN B] | 0.7 µM | 1 µM | 3.5 µM | 0.7 µM | 0.8 µM |
| C=C1[C@@H](O)[C@@]23[C@H]4O[C@H]5O[C@]2(O)[C@@H](OC(C)=O)[C@@H]2C(C)(C)CCC[C@@]52[C@@H]3[C@@H](O)C[C@@H]14 [ISOADENOLIN A] | > 10 µM | > 10 µM | > 10 µM | > 10 µM | > 10 µM |
| C=C1C(=O)[C@@]23[C@H]4O[C@H]5O[C@]2(O)[C@@H](O)[C@@H]2C(C)(C)CC[C@H](OC(C)=O)[C@]52[C@@H]3CC[C@@H]14 [ISOADENOLIN B] | > 10 µM | > 10 µM | > 10 µM | > 10 µM | > 10 µM |
| COC[C@H]1C(=O)[C@@]23[C@H]4O[C@H]5O[C@]2(O)[C@@H](O)[C@@H]2C(C)(C)CC[C@H](O)[C@]52[C@@H]3CC[C@@H]14 [ISOADENOLIN C] | > 10 µM | > 10 µM | > 10 µM | > 10 µM | > 10 µM |
| COC[C@@H]1C(=O)[C@]23[C@H](O)[C@H]1C[C@H](O)[C@H]2[C@@]12CCCC(C)(C)[C@H]1[C@H](O)[C@@]3(O)O[C@@H]2OC [ISOADENOLIN D] | > 10 µM | > 10 µM | > 10 µM | > 10 µM | > 10 µM |
| C=C1[C@@H](O)[C@]23[C@H](O)[C@H]1C[C@H](O)[C@H]2[C@@]12CCCC(C)(C)[C@H]1[C@H](O)[C@@]3(O)O[C@@H]2OC [ISOADENOLIN E] | > 10 µM | > 10 µM | > 10 µM | > 10 µM | > 10 µM |
| C=C1[C@@H](O)[C@]23[C@H](O)[C@H]1C[C@H](O)[C@H]2[C@@]12CCCC(C)(C)[C@H]1[C@H](OC(C)=O)[C@@]3(O)O[C@@H]2OC [ISOADENOLIN F] | > 10 µM | > 10 µM | > 10 µM | > 10 µM | > 10 µM |
| C=C1[C@@H](O)[C@]23[C@H](O)[C@H]1C[C@H](OC(C)=O)[C@H]2[C@@]12CCCC(C)(C)[C@H]1[C@H](O)[C@@]3(O)O[C@@H]2OC [ISOADENOLIN G] | > 10 µM | > 10 µM | > 10 µM | > 10 µM | > 10 µM |
| C=C1C(=O)[C@]23[C@H](O)[C@H]1CC[C@H]2[C@@]12[C@H](OC)O[C@]3(O)[C@@H](O)[C@@H]1C(C)(C)CC[C@@H]2OC(C)=O [ISOADENOLIN H] | > 10 µM | > 10 µM | > 10 µM | > 10 µM | > 10 µM |
| C=C1C(=O)[C@]23C[C@H]1CC=C2[C@@]12CO[C@]3(O)[C@@H](O)[C@@H]1C(C)(C)CC[C@@H]2OC(C)=O [ISOADENOLIN I] | 2.6 µM | 3 µM | 5 µM | 2.6 µM | 3.1 µM |
| C=C1C(=O)[C@@]23C(=CC[C@@H]1[C@H]2O)[C@@]12CO[C@]3(O)[C@@H](O)[C@@H]1C(C)(C)CC[C@@H]2OC(C)=O [ISOADENOLIN J] | > 10 µM | > 10 µM | > 10 µM | > 10 µM | > 10 µM |
| C=C1[C@H]2C[C@]3(C(=C[C@@H]2O)[C@@]24CO[C@]3(O)[C@@H](O)[C@@H]2C(C)(C)CC[C@@H]4OC(C)=O)[C@@H]1O [ISOADENOLIN K] | 3.5 µM | 5.7 µM | 14.1 µM | 3 µM | 3.1 µM |
| COC[C@H]1C(=O)[C@]23[C@H](O)[C@H]1CC[C@H]2[C@@]12CO[C@]3(O)[C@@H](O)[C@@H]1C(C)(C)CC[C@@H]2OC(C)=O [LASIOKAURININ] | 6.8 µM | 4.8 µM | 20.4 µM | 6 µM | 4.9 µM |
| C=C1C(=O)[C@]23[C@H](O)[C@H]1CC[C@H]2[C@@]12CO[C@@]3(O)[C@@H](O)[C@@H]1C(C)(C)CC[C@@H]2OC(C)=O [LASIOKAURIN] | 3.2 µM | 2 µM | 7.6 µM | 5.3 µM | 2.3 µM |
| C=C1C(=O)[C@]23C[C@H]1C[C@@H](OC(C)=O)[C@H]2[C@]12CCCC(C)(C)[C@H]1[C@H](O)[C@@]3(O)OC2 [LONGIKAURIN E] | 1.8 µM | 1.9 µM | 3.9 µM | 1.9 µM | 2.4 µM |
| C=C1C(=O)[C@@]23[C@@H]4O[C@H]5O[C@@]2(O)[C@@H](O)[C@@H]2C(C)(C)CCC[C@]52[C@@H]3[C@@H](O)C[C@@H]14 [MACROCALIN B] | 12.4 µM | 9.1 µM | 31.9 µM | 26.9 µM | 10.9 µM |
| CC(=O)O[C@H]1C(=O)[C@@]2(C)[C@H]([C@H](OC(=O)c3ccccc3)[C@]3(O)C[C@H](OC(=O)[C@H](O)[C@@H](NC(=O)c4ccccc4)c4ccccc4)C(C)=C1C3(C)C)[C@]1(OC(C)=O)CO[C@@H]1C[C@@H]2O [PACLITAXEL] | 0.01 µM | < 0.008 µM | < 0.008 µM | < 0.008 µM | < 0.008 µM |
| C=C1C(=O)[C@@]23[C@@H]4OC5O[C@@]2(O)[C@@H](O)[C@@H]2C(C)(C)CC[C@@H](O)[C@]52[C@@H]3CC[C@@H]14 [PONICIDIN] | 7.4 µM | 5 µM | 16.5 µM | 16.3 µM | 2.8 µM |
| C=C1C(=O)[C@@]23[C@@H]4O[C@H]5O[C@@]2(O)[C@@H](O)[C@@H]2C(C)(C)CCC[C@]52[C@@H]3CC[C@@H]14 [XEROPHILUSIN B] | 0.8 µM | 1.3 µM | 2 µM | 1.1 µM | 0.9 µM |
| C=C1C(=O)[C@]23[C@H](O)[C@H]1CC[C@H]2[C@@]12[C@H](O)O[C@]3(O)[C@@H](O)[C@@H]1C(C)(C)CC[C@@H]2OC(C)=O [XEROPHILUSIN J] | 7.6 µM | 4.6 µM | 21.7 µM | 9.7 µM | 2.7 µM |
| C=C1C(=O)[C@]23[C@H](O)[C@H]1CC[C@H]2[C@]12CCCC(C)(C)[C@H]1[C@H](O)[C@]3(O)OC2=O [XEROPHILUSIN N] | 3.8 µM | 3.6 µM | 9.7 µM | 7.9 µM | 3.5 µM |
